Experimental data published in ChEMBL document CHEMBL1155011, “Structure-activity relationships of the cycloalkanol ethylamine scaffold: discovery of selective norepinephrine reuptake inhibitors” (J Med Chem, 2008).

What was measured:
[1] = target: T1, 5-hydroxytryptamine receptor 2B (Homo sapiens, UniProt P41595); assay: Activity at 5HT2B receptor assessed as calcium mobilization by FLIPR; type: functional
[2] = target: T2, 5-hydroxytryptamine receptor 1D (Homo sapiens, UniProt P28221); assay: Inhibition of 5HT1D receptor by competition radioligand binding assay
T2 sequence (P28221 whole entry): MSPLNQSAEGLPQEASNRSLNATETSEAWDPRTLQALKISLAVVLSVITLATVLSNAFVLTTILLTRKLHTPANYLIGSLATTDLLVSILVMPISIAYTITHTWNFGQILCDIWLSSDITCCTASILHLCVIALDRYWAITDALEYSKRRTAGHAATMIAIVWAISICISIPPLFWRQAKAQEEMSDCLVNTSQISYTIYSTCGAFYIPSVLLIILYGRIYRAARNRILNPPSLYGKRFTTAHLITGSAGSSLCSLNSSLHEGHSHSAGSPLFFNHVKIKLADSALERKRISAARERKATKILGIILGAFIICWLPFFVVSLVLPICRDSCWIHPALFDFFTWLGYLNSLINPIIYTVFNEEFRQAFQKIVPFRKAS

[3] = Plasma concentration in Sprague-Dawley rat at 30 mg/kg, ip after 8 hrs; type: ADME, organism-based; design: dose 30 mg/kg, route intraperitoneal
[4] = Plasma concentration in Sprague-Dawley rat at 30 mg/kg, po after 0.5 hrs; type: ADME, organism-based; design: dose 30 mg/kg, route oral
[5] = AUC (0 to infinity) in Sprague-Dawley rat at 30 mg/kg, po; type: ADME, organism-based; design: time infinity, dose 30 mg/kg, route oral; settings: plasma
[6] = Plasma concentration in Sprague-Dawley rat at 30 mg/kg, po after 1 hr; type: ADME, organism-based; design: dose 30 mg/kg, route oral
[7] = target: T3, 5-hydroxytryptamine receptor 6 (Homo sapiens, UniProt P50406); assay: Inhibition of 5HT6 receptor by competition radioligand binding assay
T3 sequence (P50406 whole entry): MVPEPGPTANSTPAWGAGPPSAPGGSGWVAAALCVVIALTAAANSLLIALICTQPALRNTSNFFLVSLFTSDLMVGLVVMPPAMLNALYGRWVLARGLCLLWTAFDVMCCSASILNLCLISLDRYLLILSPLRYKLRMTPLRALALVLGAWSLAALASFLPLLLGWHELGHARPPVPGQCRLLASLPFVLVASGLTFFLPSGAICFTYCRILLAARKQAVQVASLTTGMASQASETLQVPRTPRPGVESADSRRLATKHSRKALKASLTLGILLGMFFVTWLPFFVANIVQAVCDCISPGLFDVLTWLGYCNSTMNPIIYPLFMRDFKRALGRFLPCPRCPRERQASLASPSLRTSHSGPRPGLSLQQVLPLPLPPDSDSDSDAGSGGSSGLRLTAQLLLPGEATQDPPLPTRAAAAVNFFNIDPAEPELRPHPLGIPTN

[8] = Plasma concentration in Sprague-Dawley rat at 1 mg/kg, iv after 1 hr; type: ADME, organism-based; design: dose 1 mg/kg, route intravenous
[9] = target: T4, 5-hydroxytryptamine receptor 7 (Homo sapiens, UniProt P34969); assay: Activity at 5HT7 receptor assessed as calcium mobilization by FLIPR; type: functional
T4 sequence (P34969 whole entry): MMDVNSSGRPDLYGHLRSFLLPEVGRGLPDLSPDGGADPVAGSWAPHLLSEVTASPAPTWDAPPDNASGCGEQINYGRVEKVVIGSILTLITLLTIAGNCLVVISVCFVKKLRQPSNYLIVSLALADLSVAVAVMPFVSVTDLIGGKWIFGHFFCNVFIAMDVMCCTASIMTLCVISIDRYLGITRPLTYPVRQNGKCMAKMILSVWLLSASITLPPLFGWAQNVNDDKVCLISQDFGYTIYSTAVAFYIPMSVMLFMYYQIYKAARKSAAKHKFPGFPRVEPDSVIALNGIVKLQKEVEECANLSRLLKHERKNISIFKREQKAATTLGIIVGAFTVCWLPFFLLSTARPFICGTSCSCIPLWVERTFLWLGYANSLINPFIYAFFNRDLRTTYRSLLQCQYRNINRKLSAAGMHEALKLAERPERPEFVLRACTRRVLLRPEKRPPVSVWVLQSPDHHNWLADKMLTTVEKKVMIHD

[10] = Plasma concentration in Sprague-Dawley rat at 1 mg/kg, iv after 6 hrs; type: ADME, organism-based; design: dose 1 mg/kg, route intravenous
[11] = Plasma concentration in Sprague-Dawley rat at 30 mg/kg, ip after 6 hrs; type: ADME, organism-based; design: dose 30 mg/kg, route intraperitoneal
[12] = Half life in Sprague-Dawley rat at 30 mg/kg, po; type: ADME, organism-based; design: dose 30 mg/kg, route oral; settings: in vivo
[13] = Plasma concentration in Sprague-Dawley rat at 1 mg/kg, iv after 0.5 hrs; type: ADME, organism-based; design: dose 1 mg/kg, route intravenous
[14] = Activity at adrenergic receptor 1 alpha assessed as calcium mobilization by FLIPR
[15] = target: Sodium-dependent serotonin transporter (Homo sapiens, UniProt P31645); assay: Inhibition of 5HT uptake at human SERT expressed in human JAR cells at 1000 nM; type: cell-based
Sodium-dependent serotonin transporter, sequence (P31645 whole entry, looked up): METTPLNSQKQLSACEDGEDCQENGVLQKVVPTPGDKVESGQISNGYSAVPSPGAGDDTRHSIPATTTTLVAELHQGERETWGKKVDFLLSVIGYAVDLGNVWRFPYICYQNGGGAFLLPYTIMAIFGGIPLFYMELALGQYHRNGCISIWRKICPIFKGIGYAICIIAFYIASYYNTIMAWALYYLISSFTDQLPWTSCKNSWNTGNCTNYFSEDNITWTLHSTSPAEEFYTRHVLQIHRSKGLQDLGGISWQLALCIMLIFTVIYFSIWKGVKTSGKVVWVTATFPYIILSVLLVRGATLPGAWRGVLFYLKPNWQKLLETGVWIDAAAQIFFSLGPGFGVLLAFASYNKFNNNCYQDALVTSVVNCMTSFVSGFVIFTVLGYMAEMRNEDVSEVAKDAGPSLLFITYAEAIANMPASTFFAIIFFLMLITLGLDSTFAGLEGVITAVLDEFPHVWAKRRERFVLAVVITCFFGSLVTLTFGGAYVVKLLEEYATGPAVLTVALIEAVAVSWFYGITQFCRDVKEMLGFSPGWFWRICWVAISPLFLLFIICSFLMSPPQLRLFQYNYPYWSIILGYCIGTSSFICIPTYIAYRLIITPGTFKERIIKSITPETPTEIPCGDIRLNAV

[16] = target: T5, 5-hydroxytryptamine receptor 2A (Homo sapiens, UniProt P28223); assay: Activity at 5HT2A receptor assessed as calcium mobilization by FLIPR; type: functional
T5 sequence (P28223 whole entry): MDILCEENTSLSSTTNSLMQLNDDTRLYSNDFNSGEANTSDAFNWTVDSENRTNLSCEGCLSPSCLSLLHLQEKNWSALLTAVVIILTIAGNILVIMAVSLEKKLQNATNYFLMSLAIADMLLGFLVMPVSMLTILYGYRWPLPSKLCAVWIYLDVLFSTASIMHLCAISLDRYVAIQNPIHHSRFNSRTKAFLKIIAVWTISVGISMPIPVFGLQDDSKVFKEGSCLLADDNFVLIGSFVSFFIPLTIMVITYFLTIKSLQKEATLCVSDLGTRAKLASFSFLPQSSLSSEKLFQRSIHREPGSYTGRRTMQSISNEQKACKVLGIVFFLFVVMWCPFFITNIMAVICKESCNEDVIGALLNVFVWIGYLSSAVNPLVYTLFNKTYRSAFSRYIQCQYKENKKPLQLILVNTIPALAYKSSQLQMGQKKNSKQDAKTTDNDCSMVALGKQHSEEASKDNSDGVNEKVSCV

Mus musculus [17] = assay: Antidepressant activity in Swiss Webster mouse assessed as decrease in immobility time at 30 mg/kg, ip after 30 mins by tail suspension test; type: functional; design: scale not given: the % may be the effect or the level left; settings: route intraperitoneal
[18] = Plasma concentration in Sprague-Dawley rat at 30 mg/kg, po after 6 hrs; type: ADME, organism-based; design: dose 30 mg/kg, route oral
[19] = target: T3, 5-hydroxytryptamine receptor 6; assay: Activity at 5HT6 receptor assessed as calcium mobilization by FLIPR; type: functional
[20] = target: T1, 5-hydroxytryptamine receptor 2B; assay: Inhibition of 5HT2B receptor by competition radioligand binding assay
[21] = Plasma concentration in Sprague-Dawley rat at 1 mg/kg, iv after […]; type: ADME, organism-based; design: dose 1 mg/kg, route intravenous
[22] = target: Sodium-dependent dopamine transporter (Homo sapiens, UniProt Q01959); assay: Displacement of [3H]WIN-35428 from human recombinant dopamine transporter expressed in CHO cells at 1000 nM; type: cell-based
Sodium-dependent dopamine transporter, sequence (Q01959 whole entry): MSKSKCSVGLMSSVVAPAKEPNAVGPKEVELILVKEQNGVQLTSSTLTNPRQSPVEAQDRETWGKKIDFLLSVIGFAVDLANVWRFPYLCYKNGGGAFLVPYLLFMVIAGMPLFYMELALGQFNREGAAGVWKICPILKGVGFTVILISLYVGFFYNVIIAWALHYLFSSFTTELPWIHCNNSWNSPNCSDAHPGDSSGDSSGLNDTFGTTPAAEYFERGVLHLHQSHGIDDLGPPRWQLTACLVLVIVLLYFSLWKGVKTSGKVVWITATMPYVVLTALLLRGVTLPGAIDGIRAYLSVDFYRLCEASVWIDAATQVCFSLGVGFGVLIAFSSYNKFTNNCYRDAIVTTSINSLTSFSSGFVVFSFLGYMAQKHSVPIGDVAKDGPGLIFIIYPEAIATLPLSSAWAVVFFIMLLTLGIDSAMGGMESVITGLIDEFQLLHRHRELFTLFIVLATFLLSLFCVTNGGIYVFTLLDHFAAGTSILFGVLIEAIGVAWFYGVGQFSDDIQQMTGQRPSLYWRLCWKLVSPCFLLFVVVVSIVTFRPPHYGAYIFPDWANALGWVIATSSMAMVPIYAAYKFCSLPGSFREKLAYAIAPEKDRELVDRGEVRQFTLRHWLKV

[23] = Plasma concentration in Sprague-Dawley rat at 1 mg/kg, iv after 4 hrs; type: ADME, organism-based; design: dose 1 mg/kg, route intravenous
[24] = Plasma concentration in Sprague-Dawley rat at 30 mg/kg, po after […]; type: ADME, organism-based; design: dose 30 mg/kg, route oral
[25] = AUC (0 to infinity) in Sprague-Dawley rat at 30 mg/kg, ip; type: ADME, organism-based; design: time infinity, dose 30 mg/kg, route intraperitoneal; settings: plasma
[26] = target: T2, 5-hydroxytryptamine receptor 1D; assay: Activity at 5HT1D receptor assessed as calcium mobilization by FLIPR; type: functional
[27] = Plasma concentration in Sprague-Dawley rat at 1 mg/kg, iv after 2 hrs; type: ADME, organism-based; design: dose 1 mg/kg, route intravenous
[28] = Plasma concentration in Sprague-Dawley rat at 30 mg/kg, ip after 0.033 hrs; type: ADME, organism-based; design: dose 30 mg/kg, route intraperitoneal
[29] = Half life in Sprague-Dawley rat at 30 mg/kg, ip; type: ADME, organism-based; design: dose 30 mg/kg, route intraperitoneal; settings: in vivo
[30] = Plasma concentration in Sprague-Dawley rat at 30 mg/kg, ip after 2 hrs; type: ADME, organism-based; design: dose 30 mg/kg, route intraperitoneal
[31] = target: T6, 5-hydroxytryptamine receptor 1B (Homo sapiens, UniProt P28222); assay: Inhibition of 5HT1B receptor by competition radioligand binding assay
T6 sequence (P28222 whole entry): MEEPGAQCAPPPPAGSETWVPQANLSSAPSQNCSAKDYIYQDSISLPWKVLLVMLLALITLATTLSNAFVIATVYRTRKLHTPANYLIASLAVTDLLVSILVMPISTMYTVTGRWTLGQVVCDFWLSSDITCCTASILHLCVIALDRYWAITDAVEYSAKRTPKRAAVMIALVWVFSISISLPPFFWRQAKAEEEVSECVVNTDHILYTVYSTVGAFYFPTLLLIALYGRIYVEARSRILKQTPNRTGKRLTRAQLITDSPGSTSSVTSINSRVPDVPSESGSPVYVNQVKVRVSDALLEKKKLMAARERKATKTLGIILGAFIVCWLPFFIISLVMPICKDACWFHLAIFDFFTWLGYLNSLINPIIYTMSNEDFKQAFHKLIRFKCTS

[32] = target: T4, 5-hydroxytryptamine receptor 7; assay: Inhibition of 5HT7 receptor by competition radioligand binding assay
[33] = Plasma concentration in Sprague-Dawley rat at 30 mg/kg, po after 4 hrs; type: ADME, organism-based; design: dose 30 mg/kg, route oral
Rattus norvegicus [34] = assay: Effect on ovariectomy-induced thermoregulatory dysfunction in telemetry Sprague-Dawley rat model assessed as mean reduction in tail skin temperature at 30 mg/kg, ip after 6.5 hrs relative to control; type: functional; settings: route intraperitoneal
[35] = target: T5, 5-hydroxytryptamine receptor 2A; assay: Inhibition of 5HT2A receptor by competition radioligand binding assay
[36] = Cmax in Sprague-Dawley rat at 30 mg/kg, po; type: ADME, organism-based; design: dose 30 mg/kg, route oral; settings: in vivo
[37] = Plasma concentration in Sprague-Dawley rat at 1 mg/kg, iv after 0.033 hrs; type: ADME, organism-based; design: dose 1 mg/kg, route intravenous
[38] = Plasma concentration in Sprague-Dawley rat at 30 mg/kg, po after 8 hrs; type: ADME, organism-based; design: dose 30 mg/kg, route oral
[39] = Plasma concentration in Sprague-Dawley rat at 30 mg/kg, ip after 0.5 hrs; type: ADME, organism-based; design: dose 30 mg/kg, route intraperitoneal
[40] = Inhibition of adrenergic receptor 1 alpha by competition radioligand binding assay
[41] = AUC (0 to infinity) in Sprague-Dawley rat at 1 mg/kg, iv; type: ADME, organism-based; design: time infinity, dose 1 mg/kg, route intravenous; settings: plasma
Mus musculus [42] = assay: Antidepressant activity in Swiss Webster mouse assessed as decrease in immobility time at 17 mg/kg, ip after 30 mins by tail suspension test; type: functional; design: scale not given: the % may be the effect or the level left; settings: route intraperitoneal
[43] = Plasma concentration in Sprague-Dawley rat at 30 mg/kg, ip after […]; type: ADME, organism-based; design: dose 30 mg/kg, route intraperitoneal
[44] = Plasma concentration in Sprague-Dawley rat at 30 mg/kg, ip after 4 hrs; type: ADME, organism-based; design: dose 30 mg/kg, route intraperitoneal
Rattus norvegicus [45] = assay: Effect on ovariectomy-induced thermoregulatory dysfunction in telemetry Sprague-Dawley rat model assessed as mean reduction in tail skin temperature at 30 mg/kg, po after 3 hrs relative to control; type: functional
[46] = target: T6, 5-hydroxytryptamine receptor 1B; assay: Activity at 5HT1B receptor assessed as calcium mobilization by FLIPR; type: functional
[47] = Cmax in Sprague-Dawley rat at 30 mg/kg, ip; type: ADME, organism-based; design: dose 30 mg/kg, route intraperitoneal; settings: in vivo
[48] = Plasma concentration in Sprague-Dawley rat at 30 mg/kg, ip after 1 hr; type: ADME, organism-based; design: dose 30 mg/kg, route intraperitoneal
[49] = Plasma concentration in Sprague-Dawley rat at 30 mg/kg, po after 2 hrs; type: ADME, organism-based; design: dose 30 mg/kg, route oral

T1 sequence (P41595 whole entry): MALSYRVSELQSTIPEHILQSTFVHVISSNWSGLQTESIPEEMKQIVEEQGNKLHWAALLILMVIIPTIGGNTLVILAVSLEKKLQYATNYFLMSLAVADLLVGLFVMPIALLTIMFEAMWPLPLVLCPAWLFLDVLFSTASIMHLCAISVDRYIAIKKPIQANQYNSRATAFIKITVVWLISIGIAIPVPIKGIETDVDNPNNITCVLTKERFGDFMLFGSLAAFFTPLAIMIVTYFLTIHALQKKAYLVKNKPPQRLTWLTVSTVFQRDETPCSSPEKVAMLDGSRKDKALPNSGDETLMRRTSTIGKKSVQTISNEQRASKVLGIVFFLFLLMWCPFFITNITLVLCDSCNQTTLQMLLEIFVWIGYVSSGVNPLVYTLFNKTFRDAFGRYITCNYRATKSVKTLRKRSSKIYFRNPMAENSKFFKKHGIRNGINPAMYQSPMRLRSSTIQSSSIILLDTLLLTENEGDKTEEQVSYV

**Q.** Which results are given for `CN1CCN(C[C@H](c2cccc(OC(F)(F)F)c2)C2(O)CCCCC2)CC1.Cl.Cl`?
**A.** EC50 [1]: > 10 µM; IC50 [2]: > 10 µM; concentration at 8 h [3]: 143 ng/mL; concentration at 0.5 h [4]: 323 ng/mL; AUC(0-inf) [5]: 931 ng·h/mL; concentration at 1 h [6]: 304 ng/mL; IC50 [7]: > 10 µM; concentration at 1 h [8]: 109 ng/mL; EC50 [9]: > 10 µM; concentration at 6 h [10]: 2.98 ng/mL; concentration at 6 h [11]: 303 ng/mL; half-life [12]: 1.6 h; concentration at 0.5 h [13]: 187 ng/mL; EC50 [14]: > 10 µM; inhibition [15]: 3%; EC50 [16]: > 10 µM; Activity (Mus musculus [17]): 53%; concentration at 6 h [18]: 36.5 ng/mL; EC50 [19]: > 10 µM; IC50 [20]: > 10 µM; concentration at […] [21]: 225 ng/mL; Activity [22]: 6%; concentration at 4 h [23]: 19.1 ng/mL; concentration at […] [24]: 115 ng/mL; AUC(0-inf) [25]: 6160 ng·h/mL; EC50 [26]: > 10 µM; concentration at 2 h [27]: 55.4 ng/mL; concentration at 0.033 h [28]: 942 ng/mL; half-life [29]: 2.3 h; concentration at 2 h [30]: 735 ng/mL; IC50 [31]: > 10 µM; IC50 [32]: > 10 µM; concentration at 4 h [33]: 79.5 ng/mL; Activity (Rattus norvegicus [34]): -2.75 °C; IC50 [35]: > 10 µM; Cmax [36]: 324 ng/mL; concentration at 0.033 h [37]: 164 ng/mL; concentration at 8 h [38]: 14.3 ng/mL; concentration at 0.5 h [39]: 2160 ng/mL; IC50 [40]: > 10 µM; AUC(0-inf) [41]: 367 ng·h/mL; Activity (Mus musculus [42]): 38%; concentration at […] [43]: 1580 ng/mL; concentration at 4 h [44]: 520 ng/mL; Activity (Rattus norvegicus [45]): -2.16 °C; EC50 [46]: > 10 µM; Cmax [47]: 2690 ng/mL; concentration at 1 h [48]: 1960 ng/mL; concentration at 2 h [49]: 182 ng/mL
